The values that follow come from publication PMC11548477, “Cathepsin B- and L-like Protease Activities Are Induced During Developmental Barley Leaf Senescence” (Plants, 2024).

Read-outs that look alike come from different tables or passages of the source. Where a SMILES comes first, the peptide text is derived from it. [ ]: non-standard residue; d: D form. The star is where a group is joined. Sta = CC(C)C[C@H](N)[C@@H](O)CC(=O)O; Isovaleryl = CC(C)CC(=O)*

The IC50 is the concentration at which inhibition is half-maximal.

Assay [1] relates to cathepsin B-like activity (Z-RR-AMC cleavage) in crude protein extract from barley leaves. In words: Z-RR-AMC cleavage by crude protein extract from barley leaves. The format is biochemical, Hordeum vulgare. Here is the method: (§1) Frozen leaves were homogenized with a pre-chilled pestle and mortar in cold extraction buffer (0.1 M Tris–HCl, pH 7.4, 2 mM DTT) at a ratio of 167 mg of leaves:1 mL buffer. The homogenate was centrifugated at 20,000× g for 30 min at 4 °C. The supernatant, which was kept in an ice bath, was used as a sample for measurements of peptidase activity and protein content.
(§2) Fluorogenic substrates Z-FR-AMC to determine cathepsin B- and L-like activity, and Z-RR-AMC to determine cathepsin B-like activity, were used. These substrates show fluorescence when AMC is released as a consequence of the hydrolysis of the Arg-AMC bond. The emitted fluorescence was detected with a SpectraMax M2 microplate reader (Molecular Devices, San Jose, CA, USA) with λex = 360 nm and λem = 460 nm. Before use, the substrates were dissolved in DMSO at 10 mM and frozen at −20 °C. The measurements were made in 96-well black microplates (PerkinElmer Inc, Waltham, MA, USA), and each well contained a 100 μL final volume of an appropriate 0.1 M buffer with DTT (2 mM), extract (1.6 mg of fresh weight), and substrate (25 μM). The reaction was initiated by the addition of the substrate. The final concentration of DMSO in microplate wells was 1% in all the assays. The assays were conducted at room temperature, and relative fluorescence readings were recorded over a period of 10 min.
(§3) For the inhibition assays, an inhibitor (1 µL of stock solution in DMSO) at different concentrations was added to the reaction mixture. For all inhibitors tested, the concentration of inhibitor that caused 50% inhibition of the enzymatic reaction (IC50) was calculated by plotting % inhibition against the logarithm of inhibitor concentration (at least six points). The data are presented as the mean values of at least three independent experiments.

Assay [2] deals with aminopeptidase B and cathepsin H-like activity (R-AMC cleavage) in crude protein extract from barley leaves. In words: R-AMC cleavage by crude protein extract from barley leaves. The format is biochemical, Hordeum vulgare. To be noted: for IC50 / inhibition of R-AMC cleavage: week-3 leaf extract; for concentration up to which no activity on R-AMC cleavage was seen: week-3 leaf samples.

Assay [3] deals with cathepsin B- and L-like activity (Z-FR-AMC cleavage) in crude protein extract from barley leaves. The assay can be described thus: Z-FR-AMC cleavage by crude protein extract from barley leaves. It is filed as biochemical, Hordeum vulgare. Here is the method: as §1, §2, §3
For assay [4], the system named is 43 kDa DCG-04-labeled cysteine protease band (cathepsin L-like protease or proteases). The assay can be described thus: inhibition of DCG-04 binding (activity-based labeling), 43 kDa band. To be noted: 2.5 μM DCG-04, pH 5.5, 3 h, week-4 leaf extract; for IC50: densitometric analysis of blots. On the set-up: species or system Hordeum vulgare. Here is the method:
(§4) The protein extracts of barley leaves obtained 4 weeks after flowering were preincubated with different concentrations of the inhibitors and proteins were labeled with 2.5 μM DCG-04 at pH 5.5 for 3 h. DMSO (solvent for inhibitors) was used as a control.
(§5) Densitometric analysis was based on 2 blots (mean values ± S.D.); data were normalized to the control value (DMSO solvent without inhibitor). The chemical structures of the inhibitors and calculated values of iLogP are shown on the right side of the figure.
(§6) Protein extracts from barley leaves (67 mg of fresh weight) were incubated with 2.5 μM DCG-04 in 0.1 M citrate buffer, pH 5.5, containing 2 mM DTT. When cysteine protease inhibitors E-64 and CA-074 were used, extracts were preincubated with the inhibitors for 10 min before addition of DCG-04. […] After the incubation, reactions were stopped and proteins were precipitated with inclusion of 100 mM NaCl, along with 80% acetone for rapid precipitation. The pellets were mixed with Laemmli loading buffer and boiled for 5 min [63]. Proteins were then separated on ready-made ExpressPlus^TM 4–12% acrylamide gels (GenScript Inc., Piscataway, NJ, USA) in Tris-MOPS SDS-PAGE Running Buffer (GenScript). After SDS-PAGE, proteins were transblotted onto nitrocellulose membrane (BioTrace™ NT nitrocellulose transfer membrane, Cytiva Life Sciences, Marlborough, MA, USA) and blocked for 1 h in 5% non-fat milk in 20 mM Tris-buffered saline (150 mM NaCl), pH 7.4, containing 0.1% Tween-20 (TBST). The membranes were washed 3 × 10 min in TBST and then incubated with streptavidin-HRP (dilution 1:2000 in 1% non-fat milk in TBST) for 1 h and washed again 3 × 10 min in TBST. The membranes were developed using the SuperSignal™ West Pico PLUS Chemiluminescent Substrate (Thermo Scientific, Rockford, IL, USA) and images were obtained using GeneTools by Syngene on a GeneSys imaging platform (Syngene, Frederick, MD, USA). Luminescent signal intensity was calculated by raw volume using GeneTools analysis Version 4.0 software from Syngene.

In assay [5] the target is 38 kDa DCG-04-labeled cysteine protease band (cathepsin B-like protease(s)). The assay can be described thus: inhibition of DCG-04 binding (activity-based labeling), 38 kDa band. More on the design: species or system Hordeum vulgare. Particulars: 2.5 μM DCG-04, pH 5.5, 3 h, week-4 leaf extract; for IC50: densitometric analysis of blots. The procedure:
as §4, §5, §6

In assay [6] the test system is aminopeptidase in barley extracts. On the set-up: method as in PMID 10681066, PMID 21787929. Particulars: cited from earlier work.
Assay [7] deals with aminopeptidase in alfalfa extracts. On the set-up: method as in PMID 10681066, PMID 21787929. Particulars: cited from earlier work.
Assay [8] concerns caseinolytic protease activity of extract obtained from week-4 barley leaves. In words: caseinolytic (total) protease activity with casein-FITC in barley leaf extract. The format is biochemical, Hordeum vulgare. Particulars: casein-FITC substrate; extract of week-4 barley leaves; pH 7.4. The procedure: as §1, §3
The next assay deals with aleurain. On the set-up: method as in PMID 16669011. Particulars: 10 μM leupeptin; cited from earlier work.
Setting [9] is: pH 7.4, week-4 leaf extract, 'No inhibition up to X' given as > X, read-out: IC50, Z-RR-AMC cleavage.
Where [10] appears, read: pH 7.4, 'No inhibition up to X' given as > X.
[11] abbreviates: pH 7.4, week-4 leaf extract, 'No inhibition up to X' given as > X, read-out: IC50, Z-FR-AMC cleavage.
[12] abbreviates: pH 5.5, week-4 leaf extract, read-out: IC50, Z-RR-AMC cleavage.
The mark [13] stands for this setting: pH 7.4, week-4 leaf extract, read-out: IC50, Z-RR-AMC cleavage.
Where [14] appears, read: pH 5.5, 'No inhibition up to X' given as > X.
The mark [15] stands for this setting: pH 5.5, week-4 leaf extract, read-out: IC50, Z-FR-AMC cleavage.
The mark [16] stands for this setting: pH 7.4, week-4 leaf extract, read-out: IC50, Z-FR-AMC cleavage.

In the case of `CC(C)CC(=O)N[C@H](C(=O)N[C@H](C(=O)N[C@@H](CC(C)C)[C@@H](O)CC(=O)N[C@@H](C)C(=O)N[C@@H](CC(C)C)[C@@H](O)CC(=O)O)C(C)C)C(C)C` [Pepstatin A] (Isovaleryl-VV[Sta]A[Sta]-OH), the IC50 in [1] (setting [9]), in assay [2] (setting [10]) and in [3] (setting [11]) was greater than 200 µM throughout.

With `CCCNC(=O)[C@H]1O[C@@H]1C(=O)N[C@H](C(=O)N1CCC[C@H]1C(=O)O)[C@@H](C)CC` [CA-074, (2S)-1-[(2S,3S)-3-methyl-2-[[(2S,3S)-3-(propylcarbamoyl)oxirane-2-carbonyl]amino]pentanoyl]pyrrolidine-2-carboxylic acid], the half-inhibitory concentration (IC50) in [1] (setting [12]) was 22.7 ± 5.3 µM; in assay [1] (setting [13]), 80.7 ± 12.4 µM; in assay [2] (setting [14]), greater than 200 µM; in assay [2] (setting [10]) it was greater than 200 µM; in assay [4], 26.4 ± 2.8 µM; in assay [5], 1.8 ± 0.6 µM. Besides, the results for the IC50 in assay [3] (setting [15]) and in assay [3] (setting [16]) were 11.3 ± 2.2 µM and 31 ± 5.6 µM, respectively. In addition, the “concentration up to which no activity on R-AMC cleavage was seen” value in assay [2] (pH not given) is greater than 0.2 mM. Moreover, the “concentration that totally blocks DCG-04 binding to the 43 kDa band” value in assay [4] is listed as greater than 100 µM.

As to `CC(C)C[C@H](NC(=O)[C@@H](O)[C@H](N)Cc1ccccc1)C(=O)O` [Bestatin], the 50% inhibitory concentration (IC50) in assay [1] (setting [9]) was greater than 1000 µM; in assay [2] (setting [10]) it was 580 ± 120 µM; in assay [3] (setting [11]) it was greater than 1000 µM. The “concentration required for complete inhibition of aminopeptidase” value in assay [6] and in assay [7] was 0.1 mM in each case.

On to `O=S(=O)(F)Cc1ccccc1` [PMSF, Phenylmethylsulfonyl fluoride], for which the “inhibition of Z-RR-AMC cleavage” value in [1] (at 2 mM, pH 7.4, week-4 leaf extract) came to 30% inhibition at 2 mM. Moreover, the IC50 in assay [2] (setting [10]) and in assay [3] (setting [11]) was greater than 2000 µM each time.

As to `CC(C)C[C@H](NC(=O)[C@H]1O[C@@H]1C(=O)O)C(=O)NCCCCNC(=N)N` [E-64, trans-epoxysuccinyl-L-leucylamido-(4-guanidino) butane], the IC50 in [1] (setting [12]) turned out to be 0.0062 ± 0.0017 µM; in [1] (setting [13]), 0.0081 ± 0.0019 µM; in [8] it was 0.0644 ± 0.0031 µM; in [4], 0.048 ± 0.0122 µM; in assay [5] it was 0.0464 ± 0.0091 µM; in [3] (setting [15]), 0.0123 ± 0.0028 µM. In assay [3] (setting [16]), the IC50 was 0.0245 ± 0.0042 µM. Further, the “inhibition of R-AMC cleavage” value in assay [2] (at 0.2–200 µM, pH 7.4) is listed as 20–25% inhibition at 0.2–200 µM; in assay [2] (at 1–200 µM, pH 5.5), 40–45% inhibition at 1–200 µM. The “concentration that totally blocks DCG-04 binding to the 43 kDa band” value in assay [4] is listed as 1 µM. Moreover, the “concentration that totally blocks DCG-04 binding to the 38 kDa band” value in assay [5] is 1 µM.

Consider `CCOC(=O)[C@H]1O[C@@H]1C(=O)N[C@@H](CC(C)C)C(=O)N[C@@H](Cc1ccc(O)cc1)C(=O)NCCCCCC(=O)N[C@@H](CCCCNC(=O)CCCC[C@@H]1SC[C@@H]2NC(=O)N[C@@H]21)C(N)=O` [DCG-04], for which the IC50 is 1.8 ± 0.4 µM in assay [1] (preliminary experiments, barley leaf extracts, pH not stated, read-out: IC50, proteolytic activity with Z-RR-AMC) and 1.8 ± 0.4 µM in [3] (preliminary experiments, barley leaf extracts, pH not stated, read-out: IC50, proteolytic activity with Z-FR-AMC).

On to `CC(=O)N[C@@H](CC(C)C)C(=O)N[C@@H](CC(C)C)C(=O)N[C@H](C=O)CCCNC(=N)N` [Leupeptin], for which the results for the IC50 in assay [1] (setting [9]) and in [2] (setting [10]) were 610 ± 30 µM and greater than 400 µM, respectively. Besides, in the assay on aleurain, the inhibition of aleurain is listed as ~ 75%. Besides, the “inhibition of Z-FR-AMC cleavage” value in [3] (at 0.4 mM, pH 7.4, week-4 leaf extract) stood at 30% inhibition at 0.4 mM.

Regarding `O=C(NCc1ccccc1)C(Cc1ccccc1)NC(=O)C1OC1C(=O)NCCc1ccc(O)cc1` [CAA0225, (2S,3S)-oxirane-2,3-dicarboxylic acid 2-[((S)-1-benzylcarbamoyl-2-phenyl-ethyl)-amide] 3-{[2-(4-hydroxy-phenyl)-ethyl]-amide}], the IC50 in [1] (setting [12]) is 0.0906 ± 0.0122 µM; in assay [1] (setting [13]), 0.0116 ± 0.0035 µM; in assay [2] (setting [14]) it was greater than 200 µM; in assay [2] (setting [10]), greater than 200 µM; in [4], 0.29 ± 0.11 µM; in assay [3] (setting [15]), 0.12 ± 0.0143 µM. Moreover, the IC50 in assay [3] (setting [16]) worked out at 0.0117 ± 0.0026 µM. The “concentration up to which no activity on R-AMC cleavage was seen” value in [2] (pH not given) is recorded as greater than 0.2 mM. The “concentration that totally blocks DCG-04 binding to the 43 kDa band” value in [4] is greater than 6 µM. The “effect on DCG-04 binding to the 38 kDa band” value in [5] was “did not block binding”.

With `c1cnc2c(c1)ccc1cccnc12` [1,10-Phenanthroline], the IC50 in assay [1] (pH not given, week-4 leaf extract, read-out: IC50, Z-RR-AMC cleavage) amounted to 3100 ± 200 µM; in assay [2] (pH not given), 560 ± 110 µM; in [3] (pH not given, week-4 leaf extract, read-out: IC50, Z-FR-AMC cleavage), 8900 ± 300 µM.
